{"source": "patent US20040028753A1", "about": "“Inhalation of nitric oxide” (priority 2000, published 2004)", "key": {"[1]": {"tested_on": "pigs with endotoxin-induced acute lung damage", "experimental": "The Animal Research Ethics Committee of Uppsala University approved the study. Twentysix pigs of Swedish country breed, weighing 24-29 Kg, were used in the study. Before the transport from the farm, the pigs were sedated with a neuroleptic, azaperonum ([…], Janssen, Belgium), 40 mg intramuscularly (im). Anaesthesia was induced with atropine im (0.04 mg/Kg), tiletamin/zolazepam (ZOLETIL, Virbac Laboratories) (6 mg/Kg) and xylzry (ROMPUN, Bayer AG, Germany) (2.2 mg/Kg). After induction, a cannula was inserted in an ear vein and an opioid ([…], Antigen Pharmaceuticals Ltd, Roscrea, Ireland) (5 ug/Kg) was injected. Muscle relaxation was provided by pancuronium (PAVULON, Organon Technika AB, Göteborg, Sweden) ([…]). Anaesthesia was maintained with a continuous infusion of a hypnotic (chlomethiazole, HEMINEVRIN, Astra, Södertälje, Sweden) (400 mg/hour), pancuronium (2 mg/hour) and fentanyl (150 ug/hour) Repeated doses of fentanyl 0.2-0.5 mg i.v. were given as necessary. Depth of anaesthesia was considered to be adequate when skin incisions did riot cause any changes in heart rate or blood pressure. Pre-warmed (38° C.) isotonic saline 500 ml/hour was given for hydration. The animals were placed in the supine position (dorsal recumbency) for the remainder of the study.\nA tracheotomy was performed after induction of anaesthesia and a cuffed tracheal tube (inner diameter 6 mm) was inserted. A volume-controlled ventilator (Siemens 900c) provided mechanical ventilation. Transducers built into the ventilator recorded airway pressure and minute ventilation. Respiratory frequency was maintained at 20 breaths per minute with tidal volume adjusted to maintain an end-tidal CO2 (PetCO2) between 36 and 41 mm Hg (4.8-5.4 kPa). The inspiratory time was 25%; an end-inspiratory pause 5% of the respiratory cycle was applied, as well as an end-expiratory pressure (PEEP) of 5-cm H2O. Inspired fraction of oxygen (FIO2) was 0.5.\nA triple lumen balloon-tipped catheter (Swan Ganz no. 7F) was introduced via the right external jugular vein to the pulmonary artery for blood sampling and pressure recordings. […] The right carotid artery was cannulated for blood sampling and recording of arterial blood pressure.\nThe arterial, central venous and pulmonary artery catheters were connected to appropriate pressure transducers (Sorenson Transpac.Transducers, Abbott Critical Care Systems, Ill, USA) and pressures were recorded on a Marquette 7010 monitor (Marquette Electronics Inc., WI USA). Mean arterial pressure (MAP), mean pulmonary artery pressure (MPAP), heart rate (HR), central venous pressure (CVP), pulmonary capillary wedge pressure (PCWP) and cardiac output (Qt) were recorded. Airway pressures were registered from the ventilator. Vascular pressures were averaged over the whole respiratory cycle and the mid-thorax was used as the zero reference level.\nQt was measured.by means of thermodilution: 10 ml of ice cold isotonic saline were injected as a bolus and the Qt was computed (cardiac output computer Marquette 7010, Marquette Electronics Inc., WI, USA). At least three injections were given for each measurement and the mean was calculated. The injections were evenly distributed over the respiratory cycle. The expired minute volume was recorded at each measurement. Mixed venous and arterial blood samples were collected for blood gas analysis (ABL 3, Radiometer, Copenhagen, Denmark), oxygen saturation and hemoglobin concentration (OSM 3, Radiometer, Copenhagen, Denmark). Five-ml arterial blood were collected at the same time, the plasma was separated for biochemical analysis (see below).\nAcute lung damage was induced by intravenous infusion of endotoxin 25 ug/kg/hour for 3 hours, and then maintained at 10 ug/kg/hour during the remaining experimental period.\nThirty minutes after surgery, baseline measurements of hemodynamics were made, blood samples were taken and blood was collected for subsequent biochemical analysis."}, "[2]": {"tested_on": "COX-1", "assay": "COX-1 expression in lung tissue by Western blotting", "assay_type": "in vivo, pig", "conditions": "3 and 5 hour INO trial, no-block group", "experimental": "(§1) The lung tissue blocks were rinsed by PBS at 4° C. The total protein of lung tissue was extracted by homogenization (Ultra-Turrax, Jenke and Kunkel, IKA Labortechnik, Staufen, Germany) in 5 volumes of ice-cold 0.05M Tris buffer (pH 7.4) containing 0.5 mM phenylmethyl-sulfonylfluoride to inhibit proteolysis. The supernatant was collected and stored at −80° C. until the analysis. The concentration of whole protein in the supernatant was determined by the method of Lowry. Then the protein was fractionated by sodium dodecyl sulfate-polyacrylamide gel electrophoresis, and electrophoretically transferred to a nitrocellulose membrane. The blot was blocked with 5% BSA in TBS overnight at 4° C. and then incubated with anti-COX-1 (1:2500, Cayman Chemical, MI, USA, Ca 160108), COX-2 (1:1500, Cayman Chemical, MI, USA, Ca 160108) in TBS containing 1% BSA over night at 4° C. […] The blot was washed 5 times in TBS, and the antigen-antibody complex was detected on photographic film, using enhanced chemiluminescence reagent (Amersham, Arlington Heights, Ill., USA). All the experiments were carried out three times, and the bands from each experiment were analyzed using the program of National Institutes of Health (NIH) Image 1.6 C for statistical analysis."}, "[3]": {"tested_on": "TXB2", "assay": "Plasma TXB2 concentration by enzyme immunoassay", "assay_type": "in vivo, pig", "experimental": "The injections were evenly distributed over the respiratory cycle. The expired minute volume was recorded at each measurement.\nBlood was collected in pre-chilled tubes containing EDTA (10 mM, final concentration), centrifuged (10 min 40C). Measurements of TXB2 concentration were performed using a commercially available enzyme immunoassay (Thromboxane B2 EIA kit Cayman Chemical, MI, USA, Ca 519031). Serum was collected from each test tube and stored at −70° C. until TXB2 measurements were performed. To ensure that all samples were free of organic solvents, the serum was purified before its addition to the assay well. Purification of TXB2 was performed as the Cayman Chemical Introduction, by first adding 10,000 cpm of tritium-labeled TXB2 (3H-TXB2) to each sample, and then 2 ml ethanol, followed by votex 4° C. for 5 minutes, and centrifugation at 1500 g for 10 minutes to remove precipitated proteins. The supernatant was collected and mixed with ultra-pure water. The sample was passed through a C-18 reverse phase cartridge. Ten percent of the eluate was removed for scintillation counting.\nEnzyme immunoassays were performed in duplicate by mixing 50 μl purified sample with 50 μl tracer and 50 μl antiserum on micro-plates. After 18 hours incubation, 200 μl Ellmans-Reagents was added to start the enzymatic reaction, and the absorption of individual vials was measured 30 minutes later at 405 nm using a photometry micro-plate reader (Thermo Max, Molecular Devices). Concentrations of TXB2 in the samples were estimated from standard curves obtained by nonlinear regression to absorption of eight known TXB2 concentrations ranging from 7.5 to 1000 pg/ml. The intra-assay and inter-assay coefficients of variation were <10%. For further details, see the TXB2 Enzyme immunoassay Kit 519031 Cayman Chemical manual."}, "[4]": {"tested_on": "COX-2", "assay": "COX-2 expression in lung tissue by Western blotting", "assay_type": "in vivo, pig", "conditions": "no-block group", "experimental": "as §1"}, "[5]": {"conditions": "inhalation of 30 ppm NO after 3 hours of endotoxin infusion (first trial)"}, "[6]": {"conditions": "second trial, after 4 hours of endotoxin infusion, 30 ppm NO"}, "[7]": {"conditions": "second trial, five minutes after discontinuation of NO inhalation"}}, "data": [{"smiles": "O=C(O)Cc1ccccc1Nc1c(Cl)cccc1Cl", "note": "[Diclofenac]", "values": [{"measurement": "effect of pretreatment on MPAP", "setting": "[1]; Diclofenac in saline 300 mg/Kg iv bolus 30 minutes before NO inhalation, endotoxin infusion", "result": "lowered MPAP"}]}, {"smiles": "[N]=O", "note": "[NO, nitric oxide]", "values": [{"measurement": "effect of inhalation or discontinuation on COX-1 expression", "setting": "[2]", "result": "did not affect"}, {"measurement": "plasma TXB2 level during NO inhalation", "setting": "[3]; first INO trial", "result": "did not change"}, {"measurement": "plasma TXB2 after INO withdrawal", "setting": "[3]; first INO trial, five minutes after withdrawal, p<0.05 in no-block group", "result": "increased"}, {"measurement": "plasma TXB2 after second INO withdrawal", "setting": "[3]; second INO trial", "result": "further increase"}, {"measurement": "effect of thirty minutes of INO on COX-2 expression", "setting": "[4]; 3 and 5 hour inhalation test", "result": "had no effect"}, {"measurement": "COX-2 expression after the INO periods", "setting": "[4]", "result": "remained increased"}, {"measurement": "time to MPAP increase after discontinuation of NO inhalation", "setting": "[1]; first trial", "result": "≤ 5", "unit": "min"}, {"measurement": "PaO2 rebound on discontinuation of NO inhalation", "setting": "[1]; first trial (3 hours of endotoxin infusion)", "result": "did not show a clear rebound phenomenon"}, {"measurement": "decrease in MPAP", "setting": "[1]; [5]", "result": 28, "unit": "%"}, {"measurement": "increase in PaO2", "setting": "[1]; [5]", "result": 54, "unit": "%"}, {"measurement": "increase in respiratory resistance during the endotoxin infusion", "setting": "[1]; pig, in vivo", "result": "did not prevent or attenuate the rise"}, {"measurement": "MPAP response to NO inhalation in second trial compared with first trial one hour earlier", "setting": "[1]; [6]", "result": "weaker"}, {"measurement": "PaO2 response to NO inhalation in second trial compared with first trial one hour earlier", "setting": "[1]; [6]", "result": "weaker, and no longer significant"}, {"measurement": "MPAP increase above the pre-NO level after discontinuation", "setting": "[1]; [7]", "result": 26, "unit": "%"}, {"measurement": "PaO2 after discontinuation relative to pre-NO level", "setting": "[1]; [7]", "result": "fallen to below the pre-NO level"}]}]}
